Target: T1, proMMP9 (Rattus norvegicus, UniProt P50282)
T1 construct: endogenous in cells; host or cells: primary synoviocytes from arthritic female Lewis rats
Test: Activation of proMMP9 in rat synoviocyte cultures (Western blot)
Assay type: cell-based
Conditions: for Signal of 80 kD band (INT*mm^2): final 48 hrs, TNFα-stimulated, pAb-1246; for 80 kD active MMP9 form detected with mAb L51/82 / 80 kD active MMP9 detected with pAb-1246: 0.37-10 μM; for 80 kD active MMP9 form detected with mAb L51/82: FIG. 1A; for 80 kD active MMP9 detected with pAb-1246: FIG. 1B
Text: A primary synoviocytes line was derived from the periarticular tissue of arthritic rats. Arthritis was induced in female Lewis rats following an i.p. administration of streptococcal cell wall peptidoglycan polysaccharides (J Exp Med 1977; 146:1585-1602). Rats with established arthritis were sacrificed, and hind-limbs were severed, immersed briefly in 70% ethanol, and placed in a sterile hood. The skin was removed and the inflamed tissue surrounding the tibia-tarsal joint was harvested using a scalpel. Tissue from six rats was pooled, minced to approximately 8 mm^3 pieces, and cultured in Dulbecco's Modified Eagle's Medium (DMEM) containing 15% fetal calf serum (FCS). In the following weeks, cells migrated out of the tissue piece, proliferated, and formed a monolayer of adherent cells. The synoviocytes were lifted from culture plates with 0.05% trypsin and passaged weekly at 1:4 ratios in DMEM containing 10% FCS. Synoviocytes were used at passage 9 to investigate the ability of Compound-α to inhibit the maturation of MMP9 to active form.
Rat synoviocytes spontaneously expressed and activated MMP9 when cultured in collagen gels and stimulated with tumor necrosis factor-alpha (TNFα) (FIG. 1 and Table 3). Eight volumes of an ice-cold solution of 3.8 mg/mL rat tail collagen (Sigma Cat #C3867-1VL) were mixed with 1 volume of 1 M sodium bicarbonate and 1 volume of 10× Roswell Park Memorial Institute medium. The pH of the mixture was adjusted to pH 7 with 1 N sodium hydroxide and equal volumes of the pH-adjusted collagen solution were mixed with DMEM containing 0.8 million synoviocytes per mL. One half mL volumes were dispensed into Costar 24-well culture dishes and placed for one hr at 37° C. and 5% CO2, during which time the collagen solution formed a gel. Individual gels were dislodged into wells of 12-well Costar plates containing 1 mL/well of DMEM adjusted to contain 0.05% BSA and 100 ng/mL mouse TNFα (R&D Systems Cat #410-MT-010). […] After overnight culture at 37° C. and 5% CO2, wells were adjusted to contain an additional 0.5 mL of DMEM containing 0.05% BSA and Compound-α at 4× the final desired concentration (final culture volumes were 2 mL). The plates were cultured an additional 48 hrs, at which time 1 mL of conditioned media were harvested into fresh eppendorf tubes containing 40 μL/mL of a 50% slurry of gelatin-conjugated sepharose (GE Healthcare Cat #17-0956-01). Samples were rotated for 2 hrs at 4° C. before centrifugation 1 min×200 g. Supernatants were discarded. The gelatin-sepharose pellets were washed once with 1 mL of ice cold DMEM, resuspended in 50 μL of 2× reducing Leamli buffer and heated 5 min at 95° C. Fifteen μL of eluted proteins were resolved on 4-12% NuPAGE gels and transferred to 0.45 μm pore-sized nitrocellose blots. Next, blots were incubated in blocking buffer (5% milk in Tris-buffered saline containing 0.1% Tween-20) for 1 hr at RT and probed overnight (4° C.) with blocking buffer containing 1 μg/mL primary antibodies. Blots were next probed 1 hr at RT with 1/10,000 dilutions of goat anti-mouse IgG-HRP or goat anti-rabbit IgG-HRP (Santa Cruz) in blocking buffer and developed using SuperSignal® West Fempto Maximum Sensitivity Substrate. Chemiluminesence signal was analyzed using a ChemiDoc imaging system (BioRad Laboratories) and Quantity One® image software. Electrophoretic mobility was estimated based on the mobility of standards (Novex Sharp Pre-Stained Protein Standards P/N 57318).
Mouse mAb-L51/82 (UC Davis/NIH NeuroMab Facility, Antibody Incorporated) was used to detect pro and processed forms of MMP9. Synoviocyte-conditioned media contained an approximately 80 kD form of MMP9 (FIG. 1A, lane 2). […] The 86 kD form was predominant in the presence of 10 μM Compound-α (FIG. 1A, lane 6). Lane 1 was loaded with a standard containing 3 ng of full-length rat proMMP9(1-708) (SEQ ID NO:11) and 3 ng of full-length rat proMMP9(1-708) (SEQ ID NO:11) converted to catalytic rat MMP9 by catalytic MMP3. […]

T1 sequence (P50282 20-708 limits assumed): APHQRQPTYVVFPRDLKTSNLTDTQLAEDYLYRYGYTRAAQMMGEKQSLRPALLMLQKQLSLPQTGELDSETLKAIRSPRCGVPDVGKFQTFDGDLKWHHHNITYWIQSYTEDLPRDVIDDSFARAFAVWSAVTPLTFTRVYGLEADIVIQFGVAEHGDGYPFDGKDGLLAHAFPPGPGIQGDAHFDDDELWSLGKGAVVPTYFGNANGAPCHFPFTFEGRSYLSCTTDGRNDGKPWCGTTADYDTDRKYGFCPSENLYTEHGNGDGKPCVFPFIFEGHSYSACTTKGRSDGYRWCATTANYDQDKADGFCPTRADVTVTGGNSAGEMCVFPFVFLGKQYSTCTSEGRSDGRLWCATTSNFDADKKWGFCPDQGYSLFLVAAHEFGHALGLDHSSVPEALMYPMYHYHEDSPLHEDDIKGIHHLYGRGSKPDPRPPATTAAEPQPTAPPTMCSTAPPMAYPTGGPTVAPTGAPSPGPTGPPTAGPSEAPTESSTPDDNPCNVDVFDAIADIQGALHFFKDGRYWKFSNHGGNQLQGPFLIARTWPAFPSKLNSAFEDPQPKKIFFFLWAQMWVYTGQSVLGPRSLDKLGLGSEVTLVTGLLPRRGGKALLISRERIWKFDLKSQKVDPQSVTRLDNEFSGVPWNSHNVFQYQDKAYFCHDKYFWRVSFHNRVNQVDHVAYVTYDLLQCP

## Cc1nc(C)c(-c2csc(Nc3cc(S(N)(=O)=O)ccc3OC(C)C)n2)s1 [Compound-α, 3-(2′,4′-Dimethyl-[4,5′]bithiazolyl-2-ylamino)-4-isopropoxy-benzenesulfonamide.HBr]
0.37 μM
  Signal of 80 kD band (INT*mm^2): 74381 INT*mm^2
1.1 μM
  Signal of 80 kD band (INT*mm^2): 45381 INT*mm^2
3.3 μM
  Signal of 80 kD band (INT*mm^2): 11554 INT*mm^2
10 μM
  Signal of 80 kD band (INT*mm^2): 2578 INT*mm^2
  80 kD active MMP9 form detected with mAb L51/82: reduced in a dose dependent fashion
  80 kD active MMP9 detected with pAb-1246: dose-dependent reduction in active MMP9
Listed as Compound a
  80 kD active MMP9 form detected with mAb L51/82: dose-dependent reduction in the appearance of the 80 kD active form of MMP9
Listed as Compound α
  80 kD active MMP9 detected with pAb-1246: dose-dependent reduction in the appearance of the 80 kD active form of MMP9

Source: US20120129897A1, “BIS HETEROARYL INHIBITORS OF PRO-MATRIX METALLOPROTEINASE ACTIVATION” (priority 2010, published 2012)
